Measurements as given in patent US11641857B2, “Unusually potent ABA receptor pan-antagonists” (The Regents of the University of California, priority 2019, dated 2023).
Entries after “also recorded” stand apart in the source; their conditions may differ.

Key:
Arabidopsis (Col) seeds = assay: Arabidopsis seed germination/greening assay in presence of ABA; assay type: in vivo; details: for blocking of ABA inhibition of cotyledon greening: 30 μM pure compound
Procedure: To evaluate and prioritize the 204 hits obtained, we examined their effects on ABA-mediated inhibition of Arabidopsis seed germination and seedling growth. Arabidopsis seeds germinate and produce photosynthetically active cotyledons within 4-days post imbibition under illumination. Low concentrations of ABA (i.e. 1 μM) inhibit both germination and seedling growth, which is easily quantified by image analysis of green pixel counts. This provides a simple test for ABA antagonists, as they will block the inhibitory effects of ABA on greening. We used this assay to characterize the 204 hit molecules. Greening experiments were performed in 96-well polystyrene petri plates using surface sterilized Arabidopsis (Col) seeds plated on to 0.7% agar medium containing ½-X MS salts, 0.5% sucrose, 1 μM ABA, and one of the 204 click reactions products (˜10 μM). After 4 days of stratification (4° C.), the plates were transferred to a growth chamber under continuous illumination and photographed 4 days later. Each experiment included ABA (1 μM ABA, no antagonist) and mock (no ABA) controls.
The OP-4-triazoles 48E9T, 49C10T, 49 Å2T, 1H6T and 6E4T were tested in Arabidopsis greening assays at 30 μM in presence or absence of 1 μM ABA using conditions described in Example 7. […] (FIG. 7).
Purified triazoles were evaluated for their ability to block the effects of exogenous ABA in inhibiting seed germination/greening, performed as described in Example 7 using the purified OP-4-peptidotriazole hits, PanMe, AA1, and OPZ at concentrations ranging from 200 nM to 50000 nM in triplicate in presence of 1 μM ABA. Seed germination was scored at the lowest concentration tested, while greening data (normalized to mock control) was fitted to log(inhibitor) vs. response-(variable slope) model using non-linear regression to infer the EC50S, using GraphPad Prism 6.0.

[1] = tested on: ABA receptors (PYR1, PYL4, PYL8); assay: ABA receptor antagonism in vitro, statements not resolved by receptor (PYR1, PYL4, PYL8 panel); assay type: biochemical, Arabidopsis
Procedure: (§1) Prior to synthesizing a library of OP-4-triazoles we conducted model click reactions to establish the feasibility and efficiency of using unpurified reaction mixtures directly in ABA receptor activation assays. These reactions were performed using OPZ and 4-ethynyltoluene as follows: we mixed OPZ (4 uL, 25 mM), alkyne (10 uL, 10 mM), sodium ascorbate (2 uL, 20 mM), BTTA (2 uL, 20 mM) and copper(II) sulphate (2 uL, 10 mM) in a 200 μL PCR tube and incubated the reaction at 37° C. for 48 hr. The reaction was monitored using TLC. In parallel, we ran a scaled-up synthesis of the triazole using similar ratios of the reagents and conditions, followed by precipitation of the product by the addition of 2N HCl and subsequent filtration to yield triazole T1 from 4-ethynyltoluene as white powder in quantitative yields. The purified triazole and unpurified click reaction were both tested in receptor-mediated phosphatase inhibition assays. […] Reactions were mixed and equilibrated for 20 minutes, substrate (4-methylumbelliferyl phosphate, 1 mM final) was added, and fluorescence data were collected (λ, exc=360 nm, λ emm=460 nm) using a Tecan Infinite F200 Pro fluorimeter. PP2C activity was calculated relative to solvent-only control wells (i.e. receptors and PP2C in assay buffer, but no test compound); compounds were tested in duplicate. […]

Arabidopsis seeds = assay: Thermoinhibition of seed germination assay; assay type: in vivo; details: 0.2 μM to 50 μM, 37° C. in dark for 72 hrs
Description: Adverse environmental conditions during germination can affect dormancy in several species. For example, high temperatures during seed imbibition can prevent seed germination and induce a form of secondary seed dormancy in a process called thermoinhibition. Although thermoinhibtion is complex, elevated ABA levels induced by heat play a critical role, as evidenced by both the identification of ABA-deficient varieties of lettuce with reduced sensitivity to thermoinhibition and pharmacological experiments using fluridone, which disrupts ABA biosynthesis and thermoinhibition in many species. Chemicals that can counter this effect of heat stress could find use as seed treatments to ensure consistent germination under adverse conditions. […] 96 well polystyrene petri plates with surface sterilized Arabidopsis seeds plated on 0.7% agar medium containing ½-x MS salts, 0.5% sucrose, and doses spanning from 0.2 μM to 50 μM of different OP-4-peptidotriazoles, PanMe, AA1, OPZ and fluridone as a positive control. After 4 d of stratification at 4° C., the plates were transferred to an incubation chamber at 37° C. in dark for 72 hrs. After heat treatment, the plates were placed in dark in an incubation chamber at RT for 48 hrs and photographed.

ABA receptors = details: cited from earlier work
PYR1 = target: T1, PYR1 (Arabidopsis thaliana, UniProt O49686); assay: ABA/receptor-mediated PP2C (ΔN-HAB1) phosphatase inhibition assay, PYR1; assay type: biochemical; details: 100 nM PYR1, 25 nM ΔN-HAB1, 50 μM test compound, presence or absence of 5 μM ABA
T1 construct: made in house
T1 sequence (O49686 1-191): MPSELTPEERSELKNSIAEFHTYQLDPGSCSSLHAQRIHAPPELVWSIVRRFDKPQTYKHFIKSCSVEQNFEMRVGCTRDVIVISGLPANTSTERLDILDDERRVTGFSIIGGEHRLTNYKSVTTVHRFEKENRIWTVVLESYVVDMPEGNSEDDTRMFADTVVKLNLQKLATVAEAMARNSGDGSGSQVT
Procedure: as §1

[2] = Light sensitivity of the isolated product; assay type: physicochemical; details: isolated solid, stored at −20° C.
Procedure: 142-(4-Azido-3,5-dicyclopropylphenyl)acetylaminolcyclohexanecarboxylic acid (2b; OPZ) To a solution of 2a (0.4 g, 1.01 mmoles, 1 equiv) in methanol/water 20 mL (1:1 v/v) was added lithium hydroxide (0.48 g, 20.2 mmoles, 20 equiv) and stirred at RT for 24 hr. After completion of the reaction (TLC), 2N HCl was added to the reaction mixture to precipitate the product as a white solid in near quantitative yields.

MAPKKK18 gene expression = assay: MAPKKK18::Luc luciferase reporter assay of ABA induced gene expression; assay type: in vivo, Arabidopsis thaliana; details: 25 μM test chemical, 25 μM ABA, 6 hr
Procedure: ASV1E9T, PanMe, AA1 and OPZ were evaluated for their ability to block effects of exogenous ABA in inducing MAPKKK18 gene expression in Arabidopsis seedlings. Arabidopsis seeds (MAPKKKI8::Luc reporter line) were surface sterilized grown and plant growth liquid medium (½ Murashige and Skoog medium and 0.5% Sucrose) under 16 hour light and 8 hour dark conditions. 10 day old seedlings were transferred to new plant growth liquid medium with test chemical at 25 μM in presence of equimolar concentration of ABA and 100 μM luciferin. Luciferase assay image were taken by XYZ camera after 6 hr of treatments. The average luminescent intensity was quantified using ImageJ. Average intensity was calculated for quadruplicates and the error bars on graphs represent the standard error of mean. […] (FIG. 14)

Arabidopsis seedlings = assay: Primary root growth assay in presence of ABA; assay type: in vivo; details: 5 and 10 μM, 10 μM ABA, 72 hrs
Procedure: Purified triazoles were evaluated for their ability to block effects of exogenous ABA in inhibiting primary root growth in Arabidopsis seedlings. Arabidopsis seeds were surface sterilized and plated on 0.7% agar medium containing 1⁄2-x MS salts, 0.5% sucrose. After 4 d of stratification at 4° C., transferred to dark chamber for 48 hrs. 5-6 seedlings at this stage were transferred to chemical plates containing purified triazole hits, PanMe, AA1 and OPZ at 5 and 10 μM in triplicate in presence of 10 μM ABA. Additional ABA controls (10 μM ABA, no antagonist) were also performed to assess effects of ABA on growth in absence of antagonist and transferred to dark chamber at RT for 72 hrs. Root lengths were measured and normalized to mock controls (FIG. 13).

Molecule: O=C(Cc1cc(C2CC2)c(-n2cc(Cn3c(=O)oc4cc(Cl)ccc43)nn2)c(C2CC2)c1)NC1(C(=O)O)CCCCC1 [1H6T]
- phytotoxicity (Arabidopsis (Col) seeds; 30 μM): possible phytotoxicity
- blocking of ABA inhibition of cotyledon greening (Arabidopsis (Col) seeds; 1 μM ABA): weakly active
- receptor selectivity (pan vs selective antagonist) [1]: pan antagonist

Molecule: COc1ccc(-c2nc3ccccc3n2Cc2cn(-c3c(C4CC4)cc(CC(=O)NC4(C(=O)O)CCCCC4)cc3C3CC3)nn2)cc1 [6E4T]
- blocking of ABA inhibition of cotyledon greening (Arabidopsis (Col) seeds; 1 μM ABA): only weakly effective
- receptor selectivity (pan vs selective antagonist) [1]: PYR1-selective antagonist

Molecule: O=C(Cc1cc(C2CC2)c(-n2cc(CNC(=O)c3cnc4ccccc4n3)nn2)c(C2CC2)c1)NC1(C(=O)O)CCCCC1 [48E9T]
- blocking of ABA inhibition of cotyledon greening (Arabidopsis (Col) seeds; 1 μM ABA): highly effective in blocking the effects of ABA

Molecule: O=C(Cc1cc(C2CC2)c(-n2cc(CNC(=O)c3coc(Br)c3)nn2)c(C2CC2)c1)NC1CCC(C(=O)O)CC1 (stereo not shown) [49 Å2T]
- blocking of ABA inhibition of cotyledon greening (Arabidopsis (Col) seeds; 1 μM ABA): highly effective in blocking the effects of ABA
- block of thermoinhibition of germination (Arabidopsis seeds): block thermoinhibition

Molecule: Cc1cccc(C(=O)NCc2cn(-c3c(C4CC4)cc(CC(=O)NC4(C(=O)O)CCCCC4)cc3C3CC3)nn2)n1 [49C10T]
- blocking of ABA inhibition of cotyledon greening (Arabidopsis (Col) seeds; 1 μM ABA): highly effective in blocking the effects of ABA

Molecule: CCCCCCSC1=C(C)[C@](O)(/C=C/C(C)=C\C(=O)O)C(C)(C)CC1=O [AS6]
- in vitro activity (literature antagonists) (ABA receptors): modest in vitro activity

Molecule: [N-]=[N+]=Nc1c(C2CC2)cc(CC(=O)NC2CCC(C(=O)O)CC2)cc1C1CC1 (stereo not shown) [OPZ, 142-(4-Azido-3,5-dicyclopropylphenyl)acetylaminolcyclohexanecarboxylic acid]
- effect on PYR1 in PP2C activity assay (PYR1): weak partial PYR1 agonist/antagonist
- light sensitivity [2]: extremely light sensitive

Molecule: CC1=C[C@@H](OCC#Cc2ccc(C)cc2)CC(C)(C)[C@@]1(O)/C=C/C(C)=C\C(=O)O [PanMe]
- in vitro activity (literature antagonists) (ABA receptors): modest in vitro activity
- phytotoxicity (Arabidopsis (Col) seeds; 200 nM to 50000 nM dose range): phytotoxicity; also recorded: phytotoxic at higher concentrations
- blocking of ABA inhibition of seed germination/greening (Arabidopsis (Col) seeds; 200 nM to 50000 nM, 1 μM ABA, triplicate): blocks ABA's effects at lower concentrations
- block of ABA induced MAPKKK18::Luc gene expression (MAPKKK18 gene expression): less effective
- block of thermoinhibition of germination (Arabidopsis seeds): blocks thermoinhibition but its effects decreased at higher concentrations
- block of ABA inhibition of primary root growth (Arabidopsis seedlings): weak effects

Molecule: fluridone
- block of thermoinhibition of germination (Arabidopsis seeds): blocks thermoinhibition at all concentrations tested
